# Data published in patent publication US7256192B2, “Aromatic diamide derivatives, chemicals for agricultural or horticultural use and usage thereof” (Nihon Nohyaku Co., Ltd., priority 1999, dated 2007).
# Tested on: common cutworm (Spodoptera litura)
# Test: Insecticidal effect on common cutworm (Test Example 2)
# Format: in vivo
# Conditions: 50 ppm; cabbage leaf immersed about 30 seconds; second-instar larvae; eight days after the inoculation; 25° C.
# Text: Insecticidal effect on common cutworm (Spodoptera litura)
# A piece of cabbage leaf (cultivar: Shikidori) was immersed for about 30 seconds in a liquid chemical prepared by diluting a preparation containing each compound listed in Table 1 or Table 2, as an active ingredient to adjust the concentration to 50 ppm. After air-drying, the piece was placed in a plastic Petri dish with a diameter of 9 cm and inoculated with second-instar larvae of common cutworm, after which the dish was closed and then allowed to stand in a room thermostated at 25° C. Eight days after the inoculation, the dead and alive were counted and the mortality was calculated according to the following equation, whereby the insecticidal effect was judged according to the criterion shown in Test Example 1. The test was carried out with three replications of 10 insects.
row,SMILES,insecticidal activity (mortality rating)
1,CCN(CC)C(=O)OCC(C)NC(=O)c1c(I)cccc1C(=O)Nc1ccc(C(F)(C(F)(F)F)C(F)(F)F)nc1C (racemic) [2-32],B or higher
2,CCNC(=O)OCC(C)NC(=O)c1c(I)cccc1C(=O)Nc1ccc(C(F)(C(F)(F)F)C(F)(F)F)nc1Cl (racemic) [2-39],B or higher
3,CCNC(=O)OCC(C)NC(=O)c1c(I)cccc1C(=O)Nc1ccc(OC(C(F)(F)F)C(F)(F)F)nc1C (racemic) [2-47],B or higher
4,COc1ccc(CNC(=O)OCC(C)NC(=O)c2c(I)cccc2C(=O)Nc2ccc(OC(C(F)(F)F)C(F)(F)F)nc2C)cc1 (racemic) [2-72],B or higher
5,CNC(=O)OCC(C)(C)NC(=O)c1c(I)cccc1C(=O)Nc1ccc(C(F)(C(F)(F)F)C(F)(F)F)nc1C [2-35],B or higher
6,CCOC(=O)NCC(C)(C)NC(=O)c1c(I)cccc1C(=O)Nc1ccc(C(F)(F)C(F)(F)F)cc1C [compound 19],B or higher
7,COC(=O)NCC(C)NC(=O)c1c(I)cccc1C(=O)Nc1ccc(C(F)(C(F)(F)F)C(F)(F)F)cc1C (stereo not shown) [compound 22],B or higher
8,CC(=O)NCC(C)(C)NC(=O)c1c(I)cccc1C(=O)Nc1ccc(C(F)(C(F)(F)F)C(F)(F)F)cc1C [compound 28],B or higher
9,Cc1cc(C(F)(C(F)(F)F)C(F)(F)F)ccc1NC(=O)c1cccc(I)c1C(=O)NC(C)(C)CNC(=O)C1CC1 [compound 29],B or higher
10,Cc1cc(C(F)(C(F)(F)F)C(F)(F)F)ccc1NC(=O)c1cccc(I)c1C(=O)NCC1COC(C)(C)O1 (stereo not shown) [compound 51],B or higher
11,COCCC(C)NC(=O)c1c(I)cccc1C(=O)Nc1ccc(C(F)(C(F)(F)F)C(F)(F)F)cc1C (stereo not shown) [compound 59],B or higher
12,Cc1cc(C(F)(C(F)(F)F)C(F)(F)F)ccc1NC(=O)c1cccc(I)c1C(=O)NC(C)CCOCC(C)C (stereo not shown) [compound 74],B or higher
13,Cc1cc(C(F)(C(F)(F)F)C(F)(F)F)ccc1NC(=O)c1cccc(I)c1C(=O)NC(C)COC(=O)N(C)C (stereo not shown) [compound 88],B or higher
14,CCCNC(=O)OCC(C)(C)NC(=O)c1c(I)cccc1C(=O)Nc1ccc(C(F)(C(F)(F)F)C(F)(F)F)cc1C [compound 129],B or higher
15,CCCNC(=O)OCC(C)(C)NC(=O)c1c(I)cccc1C(=O)Nc1ccc(C(F)(C(F)(F)F)C(F)(F)F)cc1Cl [compound 130],B or higher
16,Cc1cc(C(F)(C(F)(F)F)C(F)(F)F)ccc1NC(=O)c1cccc(I)c1C(=O)NC(C)COC(=O)NC1CC1 (stereo not shown) [compound 133],B or higher
17,Cc1cc(OC(F)(F)F)ccc1NC(=O)c1cccc(I)c1C(=O)NC(C)COC(=O)NC1CC1 (stereo not shown) [compound 134],B or higher
18,COCCNC(=O)OCC(C)(C)NC(=O)c1c(I)cccc1C(=O)Nc1ccc(C(F)(C(F)(F)F)C(F)(F)F)cc1C [compound 172],B or higher
19,CSCCCNC(=O)OCC(C)(C)NC(=O)c1c(I)cccc1C(=O)Nc1ccc(C(F)(C(F)(F)F)C(F)(F)F)cc1C [compound 184],B or higher
20,Cc1cc(C(F)(C(F)(F)F)C(F)(F)F)ccc1NC(=O)c1ccc(Cl)c(Cl)c1C(=O)NC(C)COC(=O)NCc1ccccc1 (stereo not shown) [compound 229],B or higher
21,CCNC(=O)OCC(C)NC(=O)c1c(I)cccc1C(=O)Nc1ccc(C(F)(F)C(F)(F)C(F)(F)F)cc1C (stereo not shown) [compound 272],B or higher
22,CCNC(=O)OCC(C)NC(=O)c1c(I)cccc1C(=O)Nc1ccc(C(OCC)(C(F)(F)F)C(F)(F)F)cc1C (stereo not shown) [compound 279],B or higher
